# Measured values reported in the supplement of paper PMC10307832.
# Compound: CC1(COc2ccc3c(c2)ncn3-c2ccc3cccc(N4CCC(N)CC4)c3n2)COC1 [Crenolanib] + COc1cc2c(Oc3ccc(NC(=O)C4(C(=O)Nc5ccc(F)cc5)CC4)cc3F)ccnc2cc1OCCCN1CCOCC1 [Foretinib] (partner 0.25 µM)
# Assay: relative viability (nuclei count vs DMSO), 5 days (fraction); higher = more cells survive
# Details: first compound 0.01 µM
# Summary of the method: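 Lung cancer cell lines in 1536-well plates were dosed by pin tool the day after seeding, either with one drug alone or with a fixed anchor-drug dose plus five library-drug doses (not always all listed) in √10 steps. After 5 days, cells were fixed and their nuclei stained in one step (final 0.05% Triton X-100, 1% formaldehyde, 1 ug/ml Hoechst), then counted on 4× images. Relative viability is the nuclei count in treated wells divided by that in vehicle wells. Values are medians of duplicate plates.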
row,Cell Line,relative viability
1,NCI-H1623,0.99
2,NCI-H838,1.11
3,NCI-H1651,0.884
4,EBC-1,0.102
5,NCI-H1734,1.02
6,NCI-H2009,1.25
7,EPLC-272H,0.792
8,PC-14,1.01
9,LCLC-97TM1,1.01
10,NCI-H596,0.774
11,NCI-H2228,0.994
12,EMC-BAC-2,1.05
13,NCI-H2087,1.23
14,Calu-6,0.881
15,NCI-H1703,0.32
16,NCI-H647,1.25
17,LK-2,1.27
18,NCI-H2126,1.24
19,NCI-H2342,1.01
20,SK-MES-1,1.05

row,Cell Line,relative viability
1,HARA,0.956
2,COR-L23,1
3,COR-L 105,0.972
4,LC-2-ad,1.1
5,LU99A,0.747
6,ChaGo-K-1,0.952
7,NCI-H2170,0.961
8,NCI-H3122,0.927
9,IA-LM,1.37
10,A549,0.996
11,SW 900,0.69
12,NCI-H2023,0.785
13,NCI-H520,0.671
14,SW 1573,1.04
15,NCI-H1299,1.1
16,NCI-H1563,0.952
17,NCI-H1650,1.34
18,SK-LU-1,0.802
19,NCI-H661,0.972

# Same assay, conditions: first compound 0.03162 µM
row,Cell Line,relative viability
1,NCI-H1623,0.888
2,NCI-H838,1.03
3,NCI-H1651,0.967
4,EBC-1,0.104
5,NCI-H1734,0.773
6,NCI-H2009,1.21
7,EPLC-272H,0.588
8,PC-14,0.904
9,LCLC-97TM1,0.867
10,NCI-H596,0.89
11,NCI-H2228,0.923
12,EMC-BAC-2,0.997
13,NCI-H2087,1.32
14,Calu-6,0.774
15,NCI-H1703,0.293
16,NCI-H647,1.09
17,LK-2,1.66
18,NCI-H2126,1.37
19,NCI-H2342,1.02
20,SK-MES-1,0.876

row,Cell Line,relative viability
1,HARA,0.979
2,COR-L23,0.958
3,COR-L 105,1.18
4,LC-2-ad,1.1
5,LU99A,0.867
6,ChaGo-K-1,0.942
7,NCI-H2170,0.989
8,NCI-H3122,0.98
9,IA-LM,1.1
10,A549,0.894
11,SW 900,0.91
12,NCI-H2023,1.01
13,NCI-H520,0.89
14,SW 1573,0.918
15,NCI-H1299,1.04
16,NCI-H1563,0.884
17,NCI-H1650,1.27
18,SK-LU-1,0.779
19,NCI-H661,0.969

# Same assay, conditions: first compound 0.1 µM
row,Cell Line,relative viability
1,NCI-H1623,0.86
2,NCI-H838,1.04
3,NCI-H1651,0.883
4,EBC-1,0.0945
5,NCI-H1734,0.859
6,NCI-H2009,1.09
7,EPLC-272H,0.643
8,PC-14,0.952
9,LCLC-97TM1,0.958
10,NCI-H596,0.752
11,NCI-H2228,0.693
12,EMC-BAC-2,1.03
13,NCI-H2087,1.1
14,Calu-6,0.828
15,NCI-H1703,0.321
16,NCI-H647,1.11
17,LK-2,1.12
18,NCI-H2126,0.985
19,NCI-H2342,1
20,SK-MES-1,0.974

row,Cell Line,relative viability
1,HARA,0.84
2,COR-L23,0.925
3,COR-L 105,0.848
4,LC-2-ad,0.858
5,LU99A,0.867
6,ChaGo-K-1,0.922
7,NCI-H2170,0.719
8,NCI-H3122,0.985
9,IA-LM,1.08
10,A549,0.891
11,SW 900,0.818
12,NCI-H2023,0.942
13,NCI-H520,0.651
14,SW 1573,0.943
15,NCI-H1299,1.06
16,NCI-H1563,0.852
17,NCI-H1650,1.2
18,SK-LU-1,0.538
19,NCI-H661,0.99

# Same assay, conditions: first compound 0.3162 µM
row,Cell Line,relative viability
1,NCI-H1623,0.859
2,NCI-H838,1.16
3,NCI-H1651,0.94
4,EBC-1,0.106
5,NCI-H1734,0.925
6,NCI-H2009,1.27
7,EPLC-272H,0.64
8,PC-14,1.06
9,LCLC-97TM1,0.979
10,NCI-H596,0.78
11,NCI-H2228,1.14
12,EMC-BAC-2,1.11
13,NCI-H2087,1.27
14,Calu-6,0.956
15,NCI-H1703,0.313
16,NCI-H647,1.23
17,LK-2,1.35
18,NCI-H2126,1.41
19,NCI-H2342,1.2
20,SK-MES-1,0.936

row,Cell Line,relative viability
1,HARA,0.912
2,COR-L23,0.991
3,COR-L 105,1.32
4,LC-2-ad,0.971
5,LU99A,0.879
6,ChaGo-K-1,0.894
7,NCI-H2170,0.99
8,NCI-H3122,0.963
9,IA-LM,1.22
10,A549,1.04
11,SW 900,1.15
12,NCI-H2023,1.05
13,NCI-H520,0.724
14,SW 1573,0.9
15,NCI-H1299,1.05
16,NCI-H1563,0.899
17,NCI-H1650,1.23
18,SK-LU-1,0.964
19,NCI-H661,1.07

# Same assay, conditions: first compound 1 µM
row,Cell Line,relative viability
1,NCI-H1623,0.838
2,NCI-H838,1.06
